Results reported in US6376670B1, “Quinoline-indole antimicrobial agents, uses and compositions related thereto” (Sepracor Inc., priority 1997, dated 2002).
≈ marks a conversion by molar mass, not a printed value. Read-outs that look alike come from different tables or passages of the source.

Columns and labels:
Assay in all cases: Determination of MIC values (BHI broth, 96 well microtiter plate)
Assay type in all cases: cell-based
Streptococcus pneumoniae = settings: BHI broth; for MIC: Streptococcus pneumoniae, read-out: MIC S. pneu
Summary of the method: (§1)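 Organisms are grown in BHI at 37° C (about 7% CO2) to a 0.5 McFarland standard, then inoculated at 10^5 to 10^6 cells/mL into BHI holding twofold compound dilutions (final 25 down to 0.39 µg/mL, DMSO-diluted). After overnight incubation, MIC is the lowest concentration lacking growth.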

[1] = system: vancomycin-resistant Enterococcus spp. (VRE); settings: BHI broth; for MIC: Enterococcus, VRE, read-out: MIC VREF
Summary of the method: as §1

[2] = system: methicillin-resistant Staphylococcus aureus (MRSA); settings: BHI broth; for MIC: Staphylococcus aureus, read-out: MIC MRSA
Summary of the method: as §1

[3] = MRSA, 16 h, 37° C., about 16 hours
[4] = 37° C., overnight (about 16 hours)
[5] = 16 h, 37° C., overnight (about 16 hours)
[6] = MRSA, 16 h, 37° C., overnight (about 16 hours)

Structure (SMILES) | MIC (Streptococcus pneumoniae; 37° C., about 16 hours) | MIC ([1]; 16 h, 37° C., about 16 hours) | MIC [2, 3] | MIC (Streptococcus pneumoniae; S. pneu, overnight 37° C.) | MIC ([1]; VREF, overnight 37° C.) | MIC ([2]; MRSA, overnight 37° C.) | also measured
NCCCCCNC(=O)c1cc(-c2c[nH]c3cc(F)ccc23)nc2cc(F)ccc12 [Example 497] | < 25 µg/mL | < 25 µg/mL | < 25 µg/mL |  |  |  | 
NCc1ccc(CNC(=O)c2cc(-c3c[nH]c4ccc(Br)cc34)nc3ccc(F)cc23)cc1 [Example 253] |  |  |  | < 7 µg/mL | < 25 µg/mL | < 7 µg/mL | 
OCc1[nH]c2ccc(Cl)cc2c1-c1cc(Cl)c2ccccc2n1 [Example 470] | > 25 µg/mL | > 25 µg/mL | > 25 µg/mL |  |  |  | 
NCc1ccc(CNC(=O)c2cc(-c3c[nH]c4ccc(Br)cc34)nc3ccc(C#CCN4CCSCC4)cc23)cc1 [Example 239] |  |  |  | > 25 µg/mL | < 7 µg/mL | < 7 µg/mL | 
OCc1cc(-c2c[nH]c3ccc(Br)cc23)nc2c(Cl)cccc12 [Example 457] | < 7 µg/mL | < 7 µg/mL | < 7 µg/mL |  |  |  | 
NCc1ccc(CNC(=O)c2cc(-c3c[nH]c4ccc(Br)cc34)nc3cc(Cl)c(C#CCN4CC=CCC4)cc23)cc1 [Example 282] |  |  |  | < 7 µg/mL | < 7 µg/mL | < 7 µg/mL | 
Clc1ccc2c(Cl)cc(-c3c[nH]c4cc(Cl)ccc34)nc2c1 [Example 463] | 25 µg/mL (≈ 71.9 µM) | > 25 µg/mL | 25 µg/mL (≈ 71.9 µM) |  |  |  | 
Cc1cccc2ccc(-c3c[nH]c4ccc(Br)cc34)nc12 [Example 422] | > 25 µg/mL | > 25 µg/mL | > 25 µg/mL |  |  |  | 
Cn1cc(-c2cc(C(=O)NCc3cccc(CN)c3)c3ccc(F)cc3n2)c2cc(Br)ccc21 [Example 327] |  |  |  | < 7 µg/mL | > 25 µg/mL | < 25 µg/mL | 
NCC1CCCC(CNC(=O)c2cc(-c3c[nH]c4ccc(Br)cc34)nc3cc(F)ccc23)C1 (stereo not drawn) [Example 298] |  |  |  | < 7 µg/mL |  |  | MIC VREF ([1]; VREF, overnight 37° C.): <7 µg/mL; MIC MRSA ([2]; MRSA, overnight 37° C.): < 7 µg/mL
OCc1cc(-c2c[nH]c3ccc(Br)cc23)nc2ccc(Cl)cc12 [Example 491] |  |  |  |  |  |  | MIC S. pneu (Streptococcus pneumoniae; 37° C., about 16 hours): < 7 µg/mL; MIC VREF ([1]; 37° C., about 16 hours): >25 µg/mL; MIC MRSA ([2]; 37° C., about 16 hours): < 7 µg/mL
Cc1ccc2nc(-c3c[nH]c4c(C)cccc34)ccc2c1 [Example 467] | > 25 µg/mL | > 25 µg/mL | > 25 µg/mL |  |  |  | 
Cn1cc(-c2cc(C(=O)NCc3cccc(CN)c3)c3cc(I)ccc3n2)c2cc(Br)ccc21 [Example 356] |  |  |  | < 7 µg/mL | < 7 µg/mL | < 7 µg/mL | 
O=C(O)c1ccc2[nH]cc(-c3cc(C(=O)O)c4ccccc4n3)c2c1 [Example 76] |  |  |  |  |  |  | MIC (Streptococcus pneumoniae; [4]): > 25 µg/mL; MIC [1, 5]: > 25 µg/mL; MIC [2, 6]: > 25 µg/mL
COc1ccc2[nH]c(C)c(-c3ccc4cc(C)ccc4n3)c2c1 [Example 434] | > 25 µg/mL | > 25 µg/mL | > 25 µg/mL |  |  |  | 
NCc1ccc(CNC(=O)c2cc(-c3c[nH]c4ccc(Br)cc34)nc3cc(C#CCN4CCCCC4)ccc23)cc1 [Example 262] |  |  |  | < 7 µg/mL | < 7 µg/mL | < 7 µg/mL | 
NCc1ccc(CNC(=O)c2cc(-c3c[nH]c4ccc(Br)cc34)nc3cc(I)ccc23)cc1 [Example 249] |  |  |  | < 7 µg/mL | < 7 µg/mL | < 7 µg/mL | 
COc1ccc2nc(-c3c[nH]c4ccc(OC)cc34)ccc2c1 [Example 430] | < 25 µg/mL | > 25 µg/mL | < 25 µg/mL |  |  |  | 
N#Cc1ccc2[nH]cc(-c3cc(Cl)c4ccccc4n3)c2c1 [Example 350] |  |  |  | > 25 µg/mL | > 25 µg/mL | > 25 µg/mL | 
NCc1ccc(CNC(=O)c2cc(-c3c[nH]c4ccc(Br)cc34)nc3c(Br)cccc23)cc1 [Example 139] |  |  |  |  |  |  | MIC (Streptococcus pneumoniae; [4]): < 7 µg/mL; MIC [1, 5]: < 7 µg/mL; MIC [2, 6]: < 7 µg/mL
Clc1cc(-c2c[nH]c3ccc(Br)cc23)nc2ccccc12 [Example 345] |  |  |  | < 7 µg/mL | > 25 µg/mL | < 7 µg/mL | 
Cc1cc2ccccc2nc1-c1c[nH]c2ccc(Cl)cc12 [Example 531] | < 7 µg/mL | < 7 µg/mL | < 7 µg/mL |  |  |  | 

Structure (SMILES) | MIC (Streptococcus pneumoniae; 37° C., about 16 hours) | MIC ([1]; 16 h, 37° C., about 16 hours) | MIC [2, 3] | MIC (Streptococcus pneumoniae; S. pneu, overnight 37° C.) | MIC ([1]; VREF, overnight 37° C.) | MIC ([2]; MRSA, overnight 37° C.) | also measured
Cn1cc(-c2ccc3cc(Cl)ccc3n2)c2cc(C#N)ccc21 [Example 218] |  |  |  | > 25 µg/mL | > 25 µg/mL | < 7 µg/mL | 
COc1ccc2nc(-c3c[nH]c4ccc(Br)cc34)ccc2c1 [Example 412] | > 25 µg/mL | > 25 µg/mL | < 7 µg/mL |  |  |  | 
NCc1ccc(CNC(=O)c2cc(-c3c[nH]c4ccc(Br)cc34)nc3cc(Cl)ccc23)cc1 [Example 142] |  |  |  |  |  |  | MIC (Streptococcus pneumoniae; [4]): < 7 µg/mL; MIC [1, 5]: < 7 µg/mL; MIC [2, 6]: < 7 µg/mL
Cn1cc(-c2cc(C(=O)NCc3cccc(CN)c3)c3ccccc3n2)c2cc(Br)ccc21 [Example 227] |  |  |  | < 7 µg/mL | < 7 µg/mL | < 7 µg/mL | 
NCc1ccc(CNC(=O)c2cc(-c3c[nH]c4ccc(Br)cc34)nc3cc(F)ccc23)cc1 [Example 254] |  |  |  | < 7 µg/mL | < 7 µg/mL | < 7 µg/mL | 
NCc1ccc(CNC(=O)c2cc(-c3c[nH]c4ccc(Br)cc34)nc3cc(Cl)c(I)cc23)cc1 [Example 158] |  |  |  |  |  |  | MIC (Streptococcus pneumoniae; [4]): < 7 µg/mL; MIC [1, 5]: < 7 µg/mL; MIC [2, 6]: < 7 µg/mL
COc1ccc2[nH]cc(-c3ccc4cc(C)ccc4n3)c2c1 [Example 438] | > 25 µg/mL | > 25 µg/mL | > 25 µg/mL |  |  |  | 
NCCNC(=O)c1cc(-c2c[nH]c3ccc(Br)cc23)nc2c(F)cccc12 [Example 319] |  |  |  | < 7 µg/mL | < 25 µg/mL | < 7 µg/mL | 
Fc1ccc2c(-c3ccc4cc(Cl)ccc4n3)c[nH]c2c1 [Example 288] |  |  |  | < 7 µg/mL | < 7 µg/mL | < 7 µg/mL | 
NCc1ccc(CNC(=O)c2cc(-c3c[nH]c4ccc(Br)cc34)nc3ccc(C#CCN4CCc5ccccc5C4)cc23)cc1 [Example 240] |  |  |  | > 25 µg/mL | < 25 µg/mL | < 7 µg/mL | 
CCOc1cc(-c2cn(C(=O)OC(C)(C)C)c3ccc(Br)cc23)nc2ccc(I)cc12 [Example 361] |  |  |  | > 25 µg/mL | > 25 µg/mL | > 25 µg/mL | 
NCc1ccc(CNC(=O)c2cc(-c3c[nH]c4ccc(Br)cc34)nc3ccc(/C=C/c4ccccc4)cc23)cc1 [Example 228] |  |  |  | > 25 µg/mL | > 25 µg/mL | > 25 µg/mL | 
NCc1cccc(CNC(=O)c2cc(-c3c[nH]c4ccc(Br)cc34)nc3cc(Cl)c(I)cc23)c1 [Example 243] |  |  |  | < 7 µg/mL | < 7 µg/mL | < 7 µg/mL | 
OCc1cc(-c2c[nH]c3ccc(Br)cc23)nc2c(I)cccc12 [Example 454] | < 7 µg/mL | < 7 µg/mL | < 7 µg/mL |  |  |  | 
NCC1CCC(CNC(=O)c2cc(-c3c[nH]c4ccc(Br)cc34)nc3cc(I)ccc23)CC1 (stereo not drawn) [Example 251] |  |  |  | < 7 µg/mL | < 7 µg/mL | < 7 µg/mL | 
O=C(c1cc(-c2c[nH]c3cc(F)ccc23)nc2cc(F)ccc12)N1CCNCC1 [Example 498] | < 25 µg/mL | > 25 µg/mL | < 25 µg/mL |  |  |  | 
COc1ccc2[nH]c(C)c(-c3ccc4c([N+](=O)[O-])cccc4n3)c2c1 [Example 386] |  |  |  | > 25 µg/mL | > 25 µg/mL | > 25 µg/mL | 
NCc1ccc(CNC(=O)c2cc(-c3c[nH]c4cc(F)ccc34)nc3cc(F)ccc23)cc1 [Example 493] | < 25 µg/mL | < 25 µg/mL | < 25 µg/mL |  |  |  | 
NC(=O)c1cc(-c2c[nH]c3ccc(Br)cc23)nc2ccc(C#CCN3CCCCC3)cc12 [Example 483] | < 7 µg/mL | < 7 µg/mL | < 7 µg/mL |  |  |  | 
NCc1ccc(CNC(=O)c2cc(-c3c[nH]c4ccc(Br)cc34)nc3c(Cl)c(Cl)ccc23)cc1 [Example 275] |  |  |  | < 25 µg/mL | < 7 µg/mL | < 7 µg/mL | 
COc1ccc2nc(-c3c(C)[nH]c4ccc(Cl)cc34)ccc2c1 [Example 429] | < 7 µg/mL | > 25 µg/mL | < 7 µg/mL |  |  |  | 
